US5102900A, “Imidazoles useful as antiatherosclerotic agents” (Rhone-Poulenc Rorer S.A., priority 1989, dated 1992)

Experiments:
rats = assay: In vivo inhibition of increase in plasma cholesterol level in rats fed a cholesterol supplemented diet; design: species or system rat; details: 0.03% w/w test compound in cholesterol supplemented diet, after 3 days, 100% or more = similar to control rats on normal diet
Method: In assays performed in vitro microsomes, prepared from the livers of rats fed a diet supplemented with 0.5% w/w cholesterol and 0.25% w/w cholic acid for 7 days, were incubated with radiolabelled oleoyl-CoA in the presence of compounds according to the invention at a concentration of 1μg/ml.
Values of 100% or more indicate plasma cholesterol concentrations that were similar to those of control rats fed on a normal (non-supplemented) diet.

[1] = biological target: T1, acyl coenzyme-A:cholesterol-O-acyl transferase (ACAT;EC 2.3.1.26) (Rattus norvegicus, UniProt Q7TQM4); assay: In vitro ACAT inhibition in liver microsomes of cholesterol-fed rats, radiolabelled oleoyl-CoA; assay type: biochemical; details: 1μg/ml; microsomes from livers of rats fed 0.5% w/w cholesterol and 0.25% w/w cholic acid for 7 days; read-out: In-vitro % Inhibition (degree of ACAT inhibition)
T1 construct: microsomes, prepared from the livers of rats; from tissue; host or cells: liver microsomes of rats fed 0.5% w/w cholesterol and 0.25% w/w cholic acid for 7 days
T1 sequence (Q7TQM4 1-524): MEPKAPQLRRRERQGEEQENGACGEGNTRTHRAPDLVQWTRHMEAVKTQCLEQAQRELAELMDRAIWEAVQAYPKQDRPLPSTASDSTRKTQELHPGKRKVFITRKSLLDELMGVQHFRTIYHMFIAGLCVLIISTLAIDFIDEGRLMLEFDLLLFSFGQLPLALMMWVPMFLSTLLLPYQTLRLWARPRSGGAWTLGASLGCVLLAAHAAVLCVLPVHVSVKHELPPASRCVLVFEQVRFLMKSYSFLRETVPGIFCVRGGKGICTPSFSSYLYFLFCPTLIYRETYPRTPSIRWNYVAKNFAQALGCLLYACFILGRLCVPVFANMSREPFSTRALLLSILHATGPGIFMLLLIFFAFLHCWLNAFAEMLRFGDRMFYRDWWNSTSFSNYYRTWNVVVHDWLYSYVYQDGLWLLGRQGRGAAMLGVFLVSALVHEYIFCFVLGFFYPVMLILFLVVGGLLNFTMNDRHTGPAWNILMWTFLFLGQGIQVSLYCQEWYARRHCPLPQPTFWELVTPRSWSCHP

Row | inhibition at 1 µg/mL [1] [%] | Compound | In-vivo % Reduction (inhibition of increase in plasma cholesterol level relative to control animals) (rats) [%]
1 | 94 | c1ccc(-c2nc(C3OCCCO3)[nH]c2-c2ccccc2)cc1 [Compound A, 2-(1,3-dioxan-2-yl)-4,5-diphenylimidazole] | 86
2 | 74 | CC1CC(C)OC(c2nc(-c3ccccc3)c(-c3ccccc3)[nH]2)O1 (racemic) [Compound C, (±)-cis/trans-2-(4,6-dimethyl-1,3-dioxan-2-yl)-4,5-diphenylimidazole] | 
